From PubChem BioAssay AID1959 (Broad Institute, 2009)
Calls of active or inactive are those of the source.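 The calls were made as follows: active = growth-inhibition EC50 no more than tenfold above the top tested dose; inconclusive = flat fit between 30% and 70% inhibition, or unreliable fit; inactive = EC50 more than tenfold above the top tested dose.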

These compounds were tested on E. coli NEB5alpha growth, BacTiter-Glo luminescence, 4 h (assay: antibacterial activity against E. coli NEB5alpha – luminescence, counter-screen for MEX-5/POS-1 RNA-binding inhibitor project, dose response (AID 1959);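 also: pUC19-transformed ampicillin-resistant cells grown in LB with ampicillin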).
With `COc1ccccc1N1CC(C(=O)Nc2nnc(SCC(=O)NC(C)C)s2)CC1=O` (stereo not drawn) the EC50 was > 11 µM (inactive). For `Cn1nc(-c2ccc(Cl)cc2)nc2c(=O)n(C)c(=O)nc1-2`, the EC50 was > 11 µM (inactive). With `CCN(CC)CCN=Cc1c(O)n(Cc2ccccc2)c(=O)[nH]c1=O` the EC50 was > 11 µM (inactive). In the case of `Cc1cc(C(=O)O)ccc1-n1c(C)cc(/C=C(/C#N)C(=O)Nc2ccccc2)c1C`, the EC50 is reported as > 11 µM (inactive). In the case of `C=CCn1c(=O)/c(=C\c2ccsc2)s/c1=C(/C#N)C(=O)NCCN1CCOCC1`, the EC50 is reported as > 11 µM (inactive). `CCOc1cc(C(c2c(C)[nH][nH]c2=O)c2c(C)[nH][nH]c2=O)ccc1O` was tested, and the EC50 was > 11 µM (inactive). In the case of `CCOC(=O)c1cc(C(=O)OCC)cc(-n2c(C)cc(C(=O)CN3CCOCC3)c2C)c1`, the EC50 is reported as > 11 µM (inactive). `Cc1ccc(S(=O)(=O)C(C#N)c2nc3ccccc3nc2N2CCC(C)CC2)cc1` (stereo not drawn) was tested, and the EC50 was > 11 µM (inactive). In the case of `CN(C)c1ccc(/C=C2\N=C(C(C)(C)C)OC2=O)cc1`, the EC50 is reported as > 11 µM (inactive). For `COc1ccc(NS(=O)(=O)c2ccc3c(c2)[C@H]2C=CC[C@H]2[C@@H](c2ccc(C(=O)O)cc2)N3)cc1`, the EC50 was > 11 µM (inactive). In the case of `O=C(NN1C(=O)c2ccccc2NC1c1ccccn1)c1ccc([N+](=O)[O-])cc1` (stereo not drawn), the EC50 is reported as > 11 µM (inactive). In the case of `O=C1N=c2ccc([N+](=O)[O-])cc2=C1c1sc(=O)[nH]c1O`, the EC50 is reported as > 11 µM (inactive). With `COc1cc(OC)c2c(O)c3c(c(-c4c5c(c(O)c6c(OC)cc(OC)cc46)CO[C@@H](C)[C@H]5O)c2c1)[C@H](O)[C@H](C)OC3` the EC50 was > 11 µM (inactive). In the case of `FC(F)(F)c1ccc2c(c1)C1C=CCC1C(c1ccncc1)N2` (stereo not drawn), the EC50 is reported as > 11 µM (inactive). With `O=C(CCSc1nc2ccccc2s1)N/N=C/c1c(O)ccc2ccccc12` the EC50 was > 11 µM (inactive). With `Cc1cccc(C(=O)NCCCNC(=O)c2cccc(C)c2)c1` the EC50 was > 11 µM (inactive). With `Cn1c(C(=O)NCCCN2CCOCC2)cc2c(=O)n(C)c3ccccc3c21` the EC50 was > 11 µM (inactive). `CC1=CC(C)(C)N2C(=O)C3(C(C#N)=C(N)OC4=C3C(=O)CC(C)(C)C4)c3cccc1c32` (stereo not drawn) was tested, and the EC50 was > 11 µM (inactive). In the case of `O=C1c2cccc3cccc(c23)C(=O)N1/N=C/c1c(O)n(-c2ccccc2)c(=O)[nH]c1=O`, the EC50 is reported as > 11 µM (inactive). With `Cc1n[nH]c(=O)nc1N/N=C/c1ccc(O)c([N+](=O)[O-])c1` the EC50 was > 11 µM (inactive). For `CCCCCCn1c(=O)[nH]c2nc3cc(N)ccc3nc2c1=O`, the EC50 was > 11 µM (inactive). With `CCN(CC)CCN1C(=O)c2cccc3cc(N)cc(c23)C1=O` the EC50 was > 11 µM (inactive). In the case of `Cc1c2ccccc2nc2c(F)c(NC(C)C)c(F)c(F)c12`, the EC50 is reported as > 11 µM (inactive). `Cc1cc(=O)n2[nH]c(N)c(N=Nc3ccccc3)c2n1` was tested, and the EC50 was > 11 µM (inactive). For `Cc1nn2c(N3CCOCC3)c3c(nc2c1-c1ccccc1)CCCC3`, the EC50 was > 11 µM (inactive). With `CC1C(=O)NN=C1C(=O)N/N=C/c1ccco1` (stereo not drawn) the EC50 was > 11 µM (inactive). `Cc1cc(/C=C2\C(=O)NC(=O)N(c3ccc(F)cc3)C2=O)c(C)n1-c1ccc(C(=O)O)cc1` was tested, and the EC50 was > 11 µM (inactive). For `Nc1c(C(=O)c2ccc(Br)s2)oc2ccccc12`, the EC50 was > 11 µM (inactive). In the case of `CCOC(=O)Cc1csc(NC(=O)c2sc3nc4cc(C)ccc4cc3c2N)n1`, the EC50 is reported as > 11 µM (inactive). With `Cc1[nH][nH]c(=O)c1/C=N/N1CCOCC1` the EC50 was > 11 µM (inactive). For `Cc1ccc2c(c1C)NC(C(=O)O)C1CC=CC21` (stereo not drawn), the EC50 was > 11 µM (inactive). With `COC(=O)c1ccccc1-n1cccc1C(=O)NP(=O)(N1CCOCC1)N1CCOCC1` the EC50 was > 11 µM (inactive). `CCN(CC)c1ccc2cc(C#N)c(=O)oc2c1` was tested, and the EC50 was > 11 µM (inactive). In the case of `COc1ccc(Nc2nc(-c3cccnc3)nc3ccccc23)cn1`, the EC50 is reported as > 11 µM (inactive). With `COc1cc2c(cc1OC)-c1c(OC)c(OC)c(OC)c3ccnc(c13)C2=O` the EC50 was > 11 µM (inactive). For `CCN1/C(=C2/SC(=S)N(NC(C)=O)C2=O)Sc2ccc(OC)cc21`, the EC50 was > 11 µM (inactive). `N#C/C(=C/c1cccn1-c1cccc(C(=O)O)c1)c1ccc(Cl)cc1` was tested, and the EC50 was > 11 µM (inactive). In the case of `CCN(C(=O)c1cc(Cl)ccc1OC)C1CCCCC1`, the EC50 is reported as > 11 µM (inactive). For `c1ccc(-c2nc(-c3ccccn3)nc(-c3ccccn3)n2)nc1`, the EC50 was > 11 µM (inactive). `CCN(CC)C(=O)Cn1cc(C(=O)C(=O)N2CCc3ccccc32)c2ccccc21` was tested, and the EC50 was > 11 µM (inactive). `CCOC(=O)CSc1nc2ccc(Nc3nc(N4CCOCC4)nc(N4CCOCC4)n3)cc2s1` was tested, and the EC50 was > 11 µM (inactive). With `COc1ccc(/C=C/c2cc(C(F)(F)F)[nH]c(=O)n2)cc1OC` the EC50 was > 11 µM (inactive). With `N#CC1=C(N)C(C#N)(C#N)C(c2cccnc2)C2CCCC=C12` (stereo not drawn) the EC50 was > 11 µM (inactive). In the case of `COc1cccc(/C=N/Nc2ncnc(N)c2[N+](=O)[O-])c1OC`, the EC50 is reported as > 11 µM (inactive). `Cc1nc2cc(N)ccc2n1C1CCCCC1` was tested, and the EC50 was > 11 µM (inactive). With `CCc1cc(=O)oc2cc(C)cc(OC(C)C(=O)O)c12` (stereo not drawn) the EC50 was > 11 µM (inactive). For `CCOc1cc(/C=C2\C(=O)NC(=O)N(CCc3ccc(F)cc3)C2=O)ccc1O`, the EC50 was > 11 µM (inactive). With `Cc1cc(/C=N/n2cnnc2)c(C)n1-c1cccc(C(=O)O)c1` the EC50 was > 11 µM (inactive). For `COc1ccc(C2C(C#N)=C(/N=C/N3CCN(C)CC3)OC3=C2C(=O)CC(C)(C)C3)cc1` (stereo not drawn), the EC50 was > 11 µM (inactive). For `Cc1c(C(=O)O)cccc1-n1c(C)cc(C=O)c1C`, the EC50 was > 11 µM (inactive). In the case of `COc1ccccc1C1C(C(C)=O)=C(C)N=c2s/c(=C\c3cc(OC)c(OC)c(OC)c3)c(=O)n21` (stereo not drawn), the EC50 is reported as > 11 µM (inactive). With `COc1cc(/C=N/c2oc(-c3ccccc3)cc2C#N)ccc1O` the EC50 was > 11 µM (inactive). `Cc1ccc(NC(=O)c2sc3nc4c(c(-c5ccco5)c3c2N)CCC4)cc1` was tested, and the EC50 was > 11 µM (inactive). `COc1ccc(C2C(C#N)=C(N)OC3=C2C(=O)CCC3)cc1OC` (stereo not drawn) was tested, and the EC50 was > 11 µM (inactive). For `Cc1[nH]c2ccccc2c1/C=N/NC(=S)NC(C)C`, the EC50 was > 11 µM (inactive). In the case of `CC1=C(C(=O)OCc2ccccc2)C(c2ccccc2[N+](=O)[O-])NC(=O)N1C` (stereo not drawn), the EC50 is reported as > 11 µM (inactive). `CCOC(=O)C1=C(C)N=c2s/c(=C/c3ccc(OCC(=O)O)cc3)c(=O)n2C1c1ccc(OC)cc1OC` (stereo not drawn) was tested, and the EC50 was > 11 µM (inactive). With `O=C(/C=C/N1CCOCC1)c1ccc(-c2ccccc2)cc1` the EC50 was > 11 µM (inactive). `O=c1ccc2[n+]([O-])c3ccc(O)cc3oc-2c1` was tested, and the EC50 was > 11 µM (inactive). For `Cc1ccc(N2C(=O)NC(=O)/C(=C\c3cc(C)n(-c4ccc(C(=O)O)cc4)c3C)C2=O)cc1`, the EC50 was > 11 µM (inactive). For `COc1cc(C(=O)NC(c2ccccc2)c2ccccc2)cc(OC)c1C`, the EC50 was > 11 µM (inactive). For `CC1=C[C@@H]2c3cccc4[nH]cc(c34)C[C@H]2N(C)C1`, the EC50 was > 11 µM (inactive). With `O=C(O)C1Nc2ccc(Br)cc2C2C=CCC12` (stereo not drawn) the EC50 was > 11 µM (inactive). `Cc1cccn2c(=O)c3cc(C(=O)NCC4CCCO4)c(=N)n(CCc4ccccc4)c3nc12` (stereo not drawn) was tested, and the EC50 was > 11 µM (inactive). In the case of `COCCN1CCC(CNCc2c(C(=O)N3CCCCC3)nc3c(C)cccn23)C1` (stereo not drawn), the EC50 is reported as > 11 µM (inactive). With `CN(C)[C@@H]1C(=O)C(C(N)=O)=C(O)[C@@]2(O)C(=O)C3=C(O)c4c(O)cccc4[C@@](C)(O)C3[C@H](O)C12` (stereo partly drawn) the EC50 was 7.38 µM. With `Cc1ccc(N2C(=O)/C(=C/c3ccc(CN(CCC#N)S(C)(=O)=O)o3)C(=O)NC2=S)cc1` the EC50 was > 11 µM (inactive). For `CC(=O)c1ccc(-c2ccc(/C=C(/Sc3n[nH]c(C)n3)C(=O)O)o2)cc1`, the EC50 was > 11 µM (inactive). For `CCOC(=O)c1c(/N=C/c2c(O)n(-c3cccc(C)c3)c(=O)[nH]c2=O)sc2c1CCCC2`, the EC50 was > 11 µM (inactive). For `COc1ccc(CNC(=O)COC(=O)c2cc(-c3ccc(Cl)s3)nc3ccccc23)cc1`, the EC50 was > 11 µM (inactive). `COc1cc(S(=O)(=O)Nc2ccc(C)cc2)ccc1N=Cc1c(C)c(C#N)c(=O)n(C)c1O` was tested, and the EC50 was > 11 µM (inactive). `O=C(O)C(=O)/C(=C\c1ccsc1)c1ccc2ccccc2n1` was tested, and the EC50 was > 11 µM (inactive). For `COC(=O)C1=NN(C(=O)c2ccc(C)cc2)C(O)(c2ccc(Cl)cc2)C1` (stereo not drawn), the EC50 was > 11 µM (inactive). `O=C(N/N=C/c1cccn1-c1cccc(C(=O)O)c1)Nc1ccccc1` was tested, and the EC50 was > 11 µM (inactive). `COc1cc(OC)c(C2C(C#N)=C(N)OC3=C2C(=O)CC(C)(C)C3)cc1OC` (stereo not drawn) was tested, and the EC50 was > 11 µM (inactive). In the case of `CCN(CC)c1ccc(N=Cc2c(O)n(Cc3ccccc3)c(=O)[nH]c2=O)cc1`, the EC50 is reported as > 11 µM (inactive). For `Cc1cccc2sc(NNC(=O)c3cc(=O)c4ccccc4o3)nc12`, the EC50 was > 11 µM (inactive). `COc1cc(C2C(C#N)=C(N)OC3=C2C(=O)CC(C)(C)C3)cc([N+](=O)[O-])c1O` (stereo not drawn) was tested, and the EC50 was > 11 µM (inactive). `O=C1CS/C(=C\[N+](=O)[O-])N1c1ccccc1` was tested, and the EC50 was > 11 µM (inactive). `O=C(O)c1ccc2c(c1)[C@@H]1C=CC[C@@H]1[C@H](c1ccccn1)N2` was tested, and the EC50 was > 11 µM (inactive). In the case of `Cc1cc(C)c(-n2c(O)c(/C=N/NC(=O)c3ccncc3)c(=O)[nH]c2=O)c(C)c1`, the EC50 is reported as > 11 µM (inactive). For `CCn1c(=N)c(S(=O)(=O)c2ccc(F)cc2)cc2c(=O)n3ccccc3nc21`, the EC50 was > 11 µM (inactive). `Cc1cc(/C=C(/C#N)c2nc3ccccc3[nH]2)c(C)n1-c1cc(C(=O)O)cc(C(=O)O)c1` was tested, and the EC50 was > 11 µM (inactive). `Cc1ccc(-n2c(=O)c(C#N)cc3c(=O)n4ccccc4nc32)cc1C` was tested, and the EC50 was > 11 µM (inactive). `COc1ccccc1C(=O)C1CCCN(C(=O)c2cccnc2SC)C1` (stereo not drawn) was tested, and the EC50 was > 11 µM (inactive). `COc1ccc(S(=O)(=O)NNC(=O)C(=O)NNc2ccccn2)cc1` was tested, and the EC50 was > 11 µM (inactive). For `O=[N+]([O-])c1cccc(/C=C/c2nc(C=Nc3ccccc3)c(O)o2)c1`, the EC50 was > 11 µM (inactive). With `Cc1ccccc1Nc1nc(Cl)c(C=O)s1` the EC50 was > 11 µM (inactive). `CC1C2(C)OC(=N)C(C#N)(C(C)O2)C1(C#N)C#N` (stereo not drawn) was tested, and the EC50 was > 11 µM (inactive). With `CC(=O)c1ccc(C(=O)Nc2sc3c(c2C(N)=O)CCN(Cc2ccccc2)C3)cc1` the EC50 was > 11 µM (inactive). For `Cc1cc(O)c(C(C)C)cc1N=C1CSC(=O)N1`, the EC50 was > 11 µM (inactive). `COc1ccc(C2C(C#N)=C(N)OC3=C2C(=O)CC(C)(C)C3)cc1OC` (stereo not drawn) was tested, and the EC50 was > 11 µM (inactive). For `CC(=O)c1ccc2c(c1)C1C=CCC1C(c1ccncc1)N2` (stereo not drawn), the EC50 was > 11 µM (inactive).
